This is an account of results in US7235548B2, “Compounds and their use as positive AMPA receptor modulators” (NeuroSearch A/S, priority 1998, dated 2007).

Data set [1] deals with ionotropic quisqualate (AMPA) receptors. The data set can be described thus: In vitro inhibition of 3H-AMPA binding. To be noted: 5 nM 3H-AMPA, rat cerebral cortex membranes, 30 min at 2° C.; read-out: IC50 (concentration of the test substance which inhibits the specific binding of 3H-AMPA by 50%). The text has this:
L-glutamate (GLU) is the major excitatory neurotransmitter in the mammalian central nervous system. From electrophysiological- and binding studies, there appear to be at least three subtypes of GLU receptors, tentatively named N-methyl-D-aspartate (NMDA)-, quisqualate- and kainate receptors. GLU receptor subtypes sensitive to quisqualate and kainate as a group are often referred to as non-NMDA receptors. Receptor binding studies using the labelled agonists ^3H-AMPA (α-amino-3-hydroxy-5-methyl-4-isoxazolepropionic acid) (for quisqualate receptors) and ^3H-kainate (for kainate receptors) have shown different antagonist selectivities and regional distribution. AMPA has been known for several years to be a potent and selective agonist at the traditionally named quisqualate receptors. Activation of quisqualate receptors by AMPA is associated with Na^+ influx and K^+ efflux leading to depolarization.
The non-NMDA receptors have recently been reclassified to include the quisqualate activated metabotropic receptor type, linked to the inositol triphosphate and diacylglycerate metabolism. […] Selective activation of the metabotropic type has been claimed for trans-ACPD. Recently, the potent and competitive non-NMDA receptor antagonists CNQX and NBQX have been described, and CNQX have been reported not to block the effect of quisqualate at the metabotropic receptor subtype. ^3H-AMPA is a selective radioligand for labelling the ionotropic quisqualate (AMPA) receptors.
Preparations are performed at 0–4° C. unless otherwise indicated. Cerebral cortex from male Wistar rats (150–200 g) is homogenized for 5–10 sec in 20 ml Tris-HCl (30 mM, pH 7.4) using an Ultra-Turrax homogenizer. The suspension is centrifuged at 27,000×g for 15 min and the pellet is washed three times with buffer (centrifuged at 27,000×g for 10 min). The washed pellet is homogenized in 20 ml of buffer and incubated on a water bath (37° C.) for 30 min to remove endogenous glutamate and then centrifuged for 10 min at 27,000×g. The pellet is then homogenized in buffer and centrifuged at for 10 min at 27,000×g. The final pellet is resuspended in 30 ml buffer and the preparation is frozen and stored at −20° C.
The membrane preparation is thawed and centrifuged at 2° C. for 10 min at 27,000×g for 10 min. The pellet is washed twice with 20 ml 30 mM Tris-HCl containing 2.5 mM CaCl2, pH 7.4 using an Ultra-Turrax homogenizer and centrifuged for 10 min at 27,000×g. The final pellet is resuspended in 30 mM Tris-HCl containing 2.5 mM CaCl2 and 100 mM KSCN, pH 7.4 (100 ml per g of original tissue) and used for binding assays. Aliquots of 0.5 (0.2) ml are added to 25 (20) μl of test solution and 25(20) μl of ^3H-AMPA (5 nM, final concentration), mixed and incubated for 30 min at 2° C. Non-specific binding is determined using L-glutamate (0.6 mM, final concentration). After incubation the 550 μl samples are added 5 ml of ice-cold buffer and poured directly onto Whatman GF/C glass fibre filters under suction and immediately washed with 5 ml of ice-cold buffer. The 240 μl samples are filtered over glass fibre filter using a Skatron cell harvrester. The filters are washed with 3 ml ice-cold buffer. The amount of radioactivity on the filters is determined by conventional liquid scintillation counting. Specific binding is total binding minus non-specific binding.
The test value will be given as the IC50 (the concentration (μM) of the test substance which inhibits the specific binding of ^3H-AMPA by 50%)

A further data set relates to AMPA receptor. The data set can be described thus: Voltage clamp (whole cell patch clamp), current induced by AMPA in cultured mouse neocortical neurons. The class given is cell-based. As to the method:
Experiments were performed in voltage clamp using conventional whole cell patch clamp methods (Hamill et al., 1981), essentially as described previously (Mathiesen et al., 1998). The following salt solutions were used (mM): NaCl (140), KCl (4), CaCl2 (2), MgCl2 (1), Sucrose (30), Tetrodotoxin (0.0003), Bicuculline Methiodide (0.005) and HEPES (10, pH 7.4). Intracellular solution (mM): CsCl (120), CsF (20), MgCl2 (2), EGTA (10), HEPES (10, pH=7.2).
Mouse neocortical neurons were cultured essentially as described by Drejer et al. (1987). Briefly, the forebrains from embryonic (E17) NMRI mice were removed under sterile conditions. The tissue was chopped in 0.4 mm cubes and the triturated with trypsin (12.5 μg/ml) and DNAse (2.5 μg/ml), 15 min, 37° C. The cells were suspended at a concentration of 1×10^6 cells/ml in a slightly modified DMEM which contained horse serum (10% (v/v)), penicillin (333 U/ml), paraaminobenzoic acid (1 mg/ml), L-glutamine (0.5 mM), insulin (0.08 U/ml) and KCl (23.8 mM). The cell suspension was subsequently inoculated into poly-L-lysine coated 35 mm Petri dishes (2 ml/dish). Glass coverslips (3.5 mm) were placed in the dishes before coating. After 24 hr in culture, the medium was replaced by freshly made medium containing 1% N2 supplement instead of serum.
The cells were kept in culture for 7–14 days at 37° C. (5% CO2/95% O2) before experiments were carried out.
Electronics, programs and data acquisition: The amplifier used was the EPC-9 (HEKA-electronics, Lambrect, Germany) run by a Power Macintosh G3 computer via an ITC-16 interface. Experimental conditions were set with the Pulse-software accompanying the amplifier. Data were low pass filtered and sampled directly to hard-disk at a rate of 3 times the cut-off frequency.
Pipettes and electrodes: Pipettes were pulled from borosilicate glass (Modulohm, Copenhagen, Denmark) using a horizontal electrode puller (Zeitz-Instrumente, Augsburg, Germany). The pipette resistances were 1.7–2.4 MW in the salt solutions used in these experiments. The pipette electrode was a chloridized silver wire, and the reference was a silverchloride pellet electrode (In Vivo Metric, Healdsburg, USA) fixed to the experimental chamber. The electrodes were zeroed with the open pipette in the bath just prior to sealing.
Experimental procedure: Coverslips were transferred to a […] experimental chamber mounted on the stage of an inverted microscope (IMT-2, Olympus) supplied with Nomarski optics. The neurons were continuously superfused with extracellular saline at a rate of 2.5 ml/min. After giga-seal formation (1–5 GW, success-rate≈90%) the whole cell configuration was attained by suction.
The cells were held at a holding voltage of −60 mV and at the start of each experiment the current was continuously measured for at least 30 sec to ensure a stable leak current. AMPA-containing solutions were delivered to the chamber through a custom-made gravity-driven flowpipe, the tip of which was placed approximately 50 μm from the cell. Application was triggered when the tubing connected to the flow pipe was compressed by a valve controlled by the Pulse-software. AMPA (30 μM) was applied for 1 sec every 45 sec. After obtainment of responses of a repeatable amplitude the compound to be tested was included in both the chamber and in the AMPA-containing solution. The compound was present until responses of a new repeatable was obtained.
The sample interval in all experiments was 310 μsec.
All experiments were performed at room temperature (20–25° C.).

Regarding `NC(=O)c1ccc2c(c1)S(=O)(=O)NC(C1CCCCC1)N2` (stereo not shown) [Compound 15, 3-Cyclohexyl-7-carbamoyl-1,2,3,4-tetrahydro-1,2,4-benzothiadiazine-1,1-dioxide], the IC50 in data set [1] was found to be 39 µM.
Still for that read-out and setting: in the case of `O=S1(=O)NC(C2CCCCC2)Nc2ccc(S(=O)(=O)N3CCCC3)cc21` (stereo not shown) [Compound 49, 3-Cyclohexyl-7-pyrrolidinosulfonyl-1,2,3,4-tetrahydro-1,2,4-benzothiadiazine-1,1-dioxide] it was 17 µM.
Regarding `Cc1cc2c(cc1-c1ccccn1)S(=O)(=O)NC(C1CCCCC1)N2` (stereo not shown) [Compound 111, 3-Cyclohexyl-6-methyl-7-(2′-pyridyl)-1,2,3,4-tetrahydro-1,2,4-benzothiadiazine-1,1-dioxide], the “reversibility of the potentiation” value in the data set with AMPA receptor (after wash out of the compound) was “reversible”. Also, in the data set on AMPA receptor (compound 10 μM, holding voltage −60 mV), the “potentiation of the current induced by application of 30 μM AMPA” value is on record as “potentiated”.
For the compound `CS(=O)(=O)N1CCN(S(=O)(=O)c2ccc3c(c2)S(=O)(=O)NC(C2CCCCC2)N3)CC1` (stereo not shown) [Compound 62, 3-Cyclohexyl-7-(4′-methylsulfonylpiperazino)sulfonyl-1,2,3,4-tetrahydro-1,2,4-benzothiadiazine-1,1-dioxide], the IC50 in data set [1] was 6 µM.
As for `CN(C)S(=O)(=O)c1ccc2c(c1)S(=O)(=O)NC(C1CCCCC1)N2` (stereo not shown) [Compound 47, 3-Cyclohexyl-7-dimethylaminosulfonyl-1,2,3,4-tetrahydro-1,2,4-benzothiadiazine-1,1-dioxide], the IC50 in data set [1] was found to be 5.3 µM.
The term melting point denotes the temperature of the solid-liquid transition. `Cc1cc2c(cc1S(N)(=O)=O)S(=O)(=O)NC(C1CCCCC1)N2` (stereo not shown) [Compound 113, 3-Cyclohexyl-6-methyl-7-sulfamoyl-1,2,3,4-tetrahydro-1,2,4-benzothiadiazine-1,1-dioxide] returned a melting point of 231 to 233 °C. The IC50 in data set [1] is 13 µM.
With `CC(=O)c1ccc2c(c1)S(=O)(=O)NC(C1CCCCC1)N2` (stereo not shown) [Compound 13, 3-Cyclohexyl-7-acetyl-1,2,3,4-tetrahydro-1,2,4-benzothiadiazine-1,1-dioxide], in data set [1], the IC50 worked out at 22 µM.
The same measure, in the same setting: in the case of `CC(=NO)c1ccc2c(c1)S(=O)(=O)NC(C1CCCCC1)N2` (stereo not shown) [Compound 14, 3-Cyclohexyl-7-(1-hydroxyiminoethyl)-1,2,3,4-tetrahydro-1,2,4-benzothiadiazine-1,1-dioxide] it was 45 µM.
